In the supplement of paper PMC10307832:

Tests used:
Assay in all cases: relative viability (nuclei count vs DMSO), 5 days (fraction); higher = more cells survive
BEN = tested on: BEN
Summary of the method: (§1)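 Medians of duplicate plates are given as relative viability. That measure is the nuclei count in treated wells divided by the count in vehicle wells. Counts were taken on 4× images of lung cancer cell lines in 1536-well plates, 5 days after pin-tool dosing the day after seeding with one drug alone or a fixed anchor-drug dose plus five library-drug doses (not always all listed) in √10 steps.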

NCI-H520 = tested on: NCI-H520
Summary of the method: as §1

NCI-H2087 = tested on: NCI-H2087
Summary of the method: as §1

NCI-H1355 = tested on: NCI-H1355
Summary of the method: as §1

PC-14 = tested on: PC-14
Summary of the method: as §1

NCI-H1666 = tested on: NCI-H1666
Summary of the method: as §1

LXF-289 = tested on: LXF-289
Summary of the method: as §1

CAL-12T = tested on: CAL-12T
Summary of the method: as §1

NCI-H1993 = tested on: NCI-H1993
Summary of the method: as §1

NCI-H1651 = tested on: NCI-H1651
Summary of the method: as §1

LU99A = tested on: LU99A
Summary of the method: as §1

NCI-H2085 = tested on: NCI-H2085
Summary of the method: as §1

NCI-H2170 = tested on: NCI-H2170
Summary of the method: as §1

SK-MES-1 = tested on: SK-MES-1
Summary of the method: as §1

NCI-H1563 = tested on: NCI-H1563
Summary of the method: as §1

NCI-H1437 = tested on: NCI-H1437
Summary of the method: as §1

NCI-H460 = tested on: NCI-H460
Summary of the method: as §1

NCI-H1792 = tested on: NCI-H1792
Summary of the method: as §1

HCC-44 = tested on: HCC-44
Summary of the method: as §1

COR-L23 = tested on: COR-L23
Summary of the method: as §1

NCI-H1755 = tested on: NCI-H1755
Summary of the method: as §1

Nc1cccc2c1CN(C1CCC(=O)NC1=O)C2=O (centres undefined) [Lenalidomide] + Cc1nc(NC(=O)N2CCC[C@H]2C(N)=O)sc1-c1ccnc(C(C)(C)C(F)(F)F)c1 [Alpelisib] (partner 2 µM)
relative viability (BEN; first compound 0.253 µM): 1.05
relative viability (BEN; first compound 0.8 µM): 1.01
relative viability (BEN; first compound 2.53 µM): 1.16
relative viability (BEN; first compound 8 µM): 0.788
relative viability (NCI-H520; first compound 0.253 µM): 0.88
relative viability (NCI-H520; first compound 0.8 µM): 0.922
relative viability (NCI-H520; first compound 2.53 µM): 1.15
relative viability (NCI-H520; first compound 8 µM): 0.779
relative viability (NCI-H2087; first compound 0.253 µM): 0.996
relative viability (NCI-H2087; first compound 0.8 µM): 0.945
relative viability (NCI-H2087; first compound 2.53 µM): 1.17
relative viability (NCI-H2087; first compound 8 µM): 1.08
relative viability (NCI-H1355; first compound 0.253 µM): 0.806
relative viability (NCI-H1355; first compound 0.8 µM): 0.645
relative viability (NCI-H1355; first compound 2.53 µM): 0.848
relative viability (NCI-H1355; first compound 8 µM): 0.454
relative viability (PC-14; first compound 0.253 µM): 0.899
relative viability (PC-14; first compound 0.8 µM): 0.93
relative viability (PC-14; first compound 2.53 µM): 0.982
relative viability (PC-14; first compound 8 µM): 0.9
relative viability (NCI-H1666; first compound 0.253 µM): 1.04
relative viability (NCI-H1666; first compound 0.8 µM): 0.83
relative viability (NCI-H1666; first compound 2.53 µM): 0.882
relative viability (NCI-H1666; first compound 8 µM): 1.04
relative viability (LXF-289; first compound 0.253 µM): 1.05
relative viability (LXF-289; first compound 0.8 µM): 1.05
relative viability (LXF-289; first compound 2.53 µM): 1.11
relative viability (LXF-289; first compound 8 µM): 1.08
relative viability (CAL-12T; first compound 0.253 µM): 1.09
relative viability (CAL-12T; first compound 0.8 µM): 1.33
relative viability (CAL-12T; first compound 2.53 µM): 1.52
relative viability (CAL-12T; first compound 8 µM): 1.36
relative viability (NCI-H1993; first compound 0.253 µM): 0.744
relative viability (NCI-H1993; first compound 0.8 µM): 0.734
relative viability (NCI-H1993; first compound 2.53 µM): 0.683
relative viability (NCI-H1993; first compound 8 µM): 0.713
relative viability (NCI-H1651; first compound 0.253 µM): 0.894
relative viability (NCI-H1651; first compound 0.8 µM): 1.14
relative viability (NCI-H1651; first compound 2.53 µM): 1.04
relative viability (NCI-H1651; first compound 8 µM): 1.07
relative viability (LU99A; first compound 0.253 µM): 0.47
relative viability (LU99A; first compound 0.8 µM): 0.501
relative viability (LU99A; first compound 2.53 µM): 0.501
relative viability (LU99A; first compound 8 µM): 0.317
relative viability (NCI-H2085; first compound 0.253 µM): 1.01
relative viability (NCI-H2085; first compound 0.8 µM): 0.997
relative viability (NCI-H2085; first compound 2.53 µM): 0.952
relative viability (NCI-H2085; first compound 8 µM): 0.972
relative viability (NCI-H2170; first compound 0.253 µM): 0.881
relative viability (NCI-H2170; first compound 0.8 µM): 0.781
relative viability (NCI-H2170; first compound 2.53 µM): 0.84
relative viability (NCI-H2170; first compound 8 µM): 0.755
relative viability (SK-MES-1; first compound 0.253 µM): 0.908
relative viability (SK-MES-1; first compound 0.8 µM): 1.02
relative viability (SK-MES-1; first compound 2.53 µM): 0.975
relative viability (SK-MES-1; first compound 8 µM): 0.617
relative viability (NCI-H1563; first compound 0.253 µM): 0.843
relative viability (NCI-H1563; first compound 0.8 µM): 0.908
relative viability (NCI-H1563; first compound 2.53 µM): 0.829
relative viability (NCI-H1563; first compound 8 µM): 0.87
relative viability (NCI-H1437; first compound 0.253 µM): 1.01
relative viability (NCI-H1437; first compound 0.8 µM): 1.03
relative viability (NCI-H1437; first compound 2.53 µM): 1.09
relative viability (NCI-H1437; first compound 8 µM): 1
relative viability (NCI-H460; first compound 0.253 µM): 0.363
relative viability (NCI-H460; first compound 0.8 µM): 0.492
relative viability (NCI-H460; first compound 2.53 µM): 0.667
relative viability (NCI-H460; first compound 8 µM): 0.57
relative viability (NCI-H1792; first compound 0.253 µM): 0.755
relative viability (NCI-H1792; first compound 0.8 µM): 0.604
relative viability (NCI-H1792; first compound 2.53 µM): 0.82
relative viability (NCI-H1792; first compound 8 µM): 0.612
relative viability (HCC-44; first compound 0.253 µM): 0.865
relative viability (HCC-44; first compound 0.8 µM): 0.594
relative viability (HCC-44; first compound 2.53 µM): 0.821
relative viability (HCC-44; first compound 8 µM): 0.663
relative viability (COR-L23; first compound 0.253 µM): 0.798
relative viability (COR-L23; first compound 0.8 µM): 0.794
relative viability (COR-L23; first compound 2.53 µM): 0.784
relative viability (COR-L23; first compound 8 µM): 0.875
relative viability (NCI-H1755; first compound 0.253 µM): 0.865
relative viability (NCI-H1755; first compound 0.8 µM): 0.913
relative viability (NCI-H1755; first compound 2.53 µM): 0.985
relative viability (NCI-H1755; first compound 8 µM): 0.8
